# Laboratory results as given in patent US9279134B2, “Methods for isolating bacteria” (DEINOVE, priority 2009, dated 2016).
# Tests used:
# indigenous microflora = test: Soil sample suspension maintained in presence of bleocin, growth of colonies; type: cell-based; settings: 50 μg/ml bleocin
# Protocol: (§1) Soil samples containing Deinococcus radiopugnans strain DRH40 were placed in suspension under conditions similar to that of example 2. In place of irradiation, the suspensions were maintained in the absence (control) or presence of 50 μg/ml or 100 μg/ml of bleocin.
# [1] = test system: Deinococcus radiopugnans strain DRH40; test: as above; type: cell-based; settings: 50 μg/ml bleocin
# Protocol: as §1
substance,measurement,setting,value
bleocin,effect on indigenous microflora,indigenous microflora,decreases drastically
same,growing pink colonies (Deinococcus),[1],pink colonies are present
